Where two headings read alike, the source gives them in different places.
Assays:
Assay in all cases: 3H-TdR (3H-thymidine) incorporation assay at 72 hr
[1] = system: CEM/dCK-; format: cell-based; settings: for IC50: Homo sapiens, CCRF-CEM; for Factor* (Resistance Factor = Ratio of dCK- on Wild-type CCRF-CEM): ratio of IC50 CEM/dCK- to CCRF-CEM, 24 h
Method: (§1) Table of IC50 Values (μM) for Controls
(§2) Exposition of 24 hr to drug, wash, incubated for another 48 hr (total of 72 hr assay)
(§3) (3H-Thymidine Incorporation Assay)

[2] = system: CCRF-CEM; format: cell-based
Method: as §1, §2, §3

[3] = system: MCF-7; format: cell-based, Human
[4] = system: H-460; format: cell-based, Human
[5] = system: SF-268; format: cell-based, Human
[6] = read-out: IC50 CEM/dCK- 24 h, 24 h drug exposure, wash, another 48 hr, deoxycytidine kinase-deficient CCRF-CEM
[7] = Homo sapiens, CCRF-CEM, read-out: IC50 CCRF-CEM 24 h, 24 h drug exposure, wash, another 48 hr, 3H-TdR incorporation at 72 hr
[8] = Homo sapiens, MCF7, read-out: IC50 MCF-7 24 h, 24 h drug exposure, wash, another 48 hr, 3H-TdR incorporation at 72 hr
[9] = Homo sapiens, NCI-H460, read-out: IC50 H-460 24 h, 24 h drug exposure, wash, another 48 hr, 3H-TdR incorporation at 72 hr
[10] = Homo sapiens, SF-268, read-out: IC50 SF-268 24 h, 24 h drug exposure, wash, another 48 hr, 3H-TdR incorporation at 72 hr
[11] = Homo sapiens, CCRF-CEM, read-out: IC50 CCRF-CEM 24 h
[12] = Homo sapiens, MCF7, read-out: IC50 MCF-7 24 h
[13] = Homo sapiens, NCI-H460, read-out: IC50 H-460 24 h
[14] = Homo sapiens, SF-268, read-out: IC50 SF-268 24 h

With CCCCC(C)C(=O)OC[C@H]1OC[C@@H](n2ccc(/N=C/N(C)C)nc2=O)O1 (stereo partly drawn) [Compound 64, (2S,4S)-2-(2″-METHYL- HEXANOICOXYMETHYL)-4- (4′-NN- DIMETHYLAMINOMETHYLENE- CYTOSIN-1′-YL)-1,3- DIOXOLANE] the IC50 [1, 6] was 3600 nM, the “Factor* (Resistance Factor = Ratio of dCK- on Wild-type CCRF-CEM)” value [1] was 2,000 and the IC50 [2, 7] was 1.8 nM. For the same compound, the IC50 [3, 8] was 4.4 nM, the IC50 [4, 9] was 1.7 nM and the IC50 [5, 10] was 7.1 nM.

In the case of CCCCC(CC)C(=O)OC[C@H]1OC[C@@H](n2ccc(/N=C/N(C)C)nc2=O)O1 (stereo partly drawn) [Compound 65, (2S,4S)-2-(2″-ETHYL- HEXANOICOXYMETHYL)-4- (4′-N,N- DIMETHYLAMINOMETHYLENE- CYTOSIN-1′-YL)-1,3- DIOXOLANE], the IC50 [1, 6] is reported as 26000 nM, the “Factor* (Resistance Factor = Ratio of dCK- on Wild-type CCRF-CEM)” value [1] is reported as 6,667 and the IC50 [2, 7] is reported as 3.9 nM. For the same compound, the IC50 [3, 8] was 12 nM, the IC50 [4, 9] was 11 nM and the IC50 [5, 10] was 33 nM.

In the case of CC(C)OC(=O)OCOC[C@H]1OC[C@@H](n2ccc(N)nc2=O)O1.O=C(O)C(F)(F)F [Compound 68, CARBONIC ACID 4-(4- AMINO-2-OXO-2H- PYRIMIDIN-1-YL)- [1,3]DIOXOLAN-2- YLMETHOXYMETHYL ESTER ISOPROPYL ESTER TRIFLUOROACETIC ACID SALT], the IC50 [1, 6] is reported as greater than 100000 nM, the “Factor* (Resistance Factor = Ratio of dCK- on Wild-type CCRF-CEM)” value [1] is reported as 3,333 and the IC50 [2, 7] is reported as 30 nM. The IC50 [3, 8] was 76 nM, the IC50 [4, 9] was 19 nM and the IC50 [5, 10] was 210 nM.

For CC(C(=O)OC[C@H]1OC[C@@H](n2ccc(/N=C/N(C)C)nc2=O)O1)c1ccccc1 (stereo partly drawn) [Compound 70, (2S,4S)-2-(2″- METHYLPHENYLACETOXY)MET HYL-4-(4′-N,N- DIMETHYLAMINOMETHYLENE- CYTOSIN-1′-YL)-1,3- DIOXOLANE], the IC50 [1, 6] was 30000 nM, the “Factor* (Resistance Factor = Ratio of dCK- on Wild-type CCRF-CEM)” value [1] was 3,409 and the IC50 [2, 7] was 8.8 nM. It also gave an IC50 [3, 8] of 47 nM, an IC50 [4, 9] of 36 nM and an IC50 [5, 10] of 270 nM.

In the case of CCCCCOC(=O)Nc1ccn([C@@H]2CO[C@H](CO)O2)c(=O)n1 [Compound 71, [1-(2-HYDROXYMETHYL- [1,3]DIOXOLAN-4-YL)-2- OXO-1,2-DIHYDRO- PYRIMIDIN-4-YL]- CARBAMIC ACID PENTYL ESTER], the IC50 [1, 6] is reported as greater than 100000 nM, the “Factor* (Resistance Factor = Ratio of dCK- on Wild-type CCRF-CEM)” value [1] is reported as 556 and the IC50 [2, 7] is reported as 180 nM. It also gave an IC50 [3, 8] of 130 nM, an IC50 [4, 9] of 310 nM and an IC50 [5, 10] of 810 nM.

COc1ccc(OC(=O)Nc2ccn([C@@H]3CO[C@H](CO)O3)c(=O)n2)cc1 [Compound 73, [1-(2-HYDROXYMETHYL- [1,3]DIOXOLAN-4-YL)-2- OXO-1,2-DIHYDRO- […]-4-YL]- CARBAMIC ACID 4- METHOXY-PHENYL ESTER] was tested, and the IC50 ([1]; read-out: IC50 CEM/dCK- 24 h) was 99000 nM, the “Factor* (Resistance Factor = Ratio of dCK- on Wild-type CCRF-CEM)” value [1] was 990 and the IC50 [2, 11] was 100 nM. The IC50 [3, 12] was 260 nM, the IC50 [4, 13] was 270 nM and the IC50 [5, 14] was 30 nM.

For CC(C)(C)OC(=O)N(CCCCCC(=O)Nc1ccn([C@@H]2CO[C@H](CO)O2)c(=O)n1)Cc1ccccc1 [Compound 77, Benzyl-{5-[1-(2-hydroxymethyl-[1,3]dioxolan-4-yl)-2-oxo-1,2-dihydro-pyrimidin-4-ylcarbamoyl]-pentyl}-carbamic acid tert-butyl ester], the IC50 [1, 6] was 74000 nM, the “Factor* (Resistance Factor = Ratio of dCK- on Wild-type CCRF-CEM)” value [1] was 1,370 and the IC50 [2, 7] was 54 nM. For the same compound, the IC50 [3, 8] was 30 nM, the IC50 [4, 9] was 59 nM and the IC50 [5, 10] was 380 nM.

With CC(C)(C)OC(=O)N(CCCCCC(=O)Nc1ccn([C@@H]2CO[C@H](COC(=O)CCCCCN(Cc3ccccc3)C(=O)OC(C)(C)C)O2)c(=O)n1)Cc1ccccc1 [Compound 78, 6-(Benzyl-tert-butoxycarbonyl-amino)-hexanoic acid 4-{4-[6-(benzyl-tert-butoxycarbonyl-amino)-hexanoylamino]-2-oxo-2H-pyrimidin-1-yl}-[1,3]dioxolan-2-ylmethyl ester] the IC50 [1, 6] was 13000 nM, the “Factor* (Resistance Factor = Ratio of dCK- on Wild-type CCRF-CEM)” value [1] was 351 and the IC50 [2, 7] was 37 nM. For the same compound, the IC50 [3, 8] was 45 nM, the IC50 [4, 9] was 42 nM and the IC50 [5, 10] was 95 nM.

With N=C(OC[C@H]1OC[C@@H](n2ccc(N)nc2=O)O1)C(Cl)(Cl)Cl [Compound 79] the “Factor* (Resistance Factor = Ratio of dCK- on Wild-type CCRF-CEM)” value [1] was 4,500, the IC50 [2, 11] was 14 nM and the IC50 [3, 12] was 170 nM. For the same compound, the IC50 [4, 13] was 120 nM and the IC50 [5, 14] was 160 nM.

With COC(=O)CCCC(=O)Nc1ccn([C@@H]2CO[C@H](COC(=O)CCCC(=O)OC)O2)c(=O)n1 [Compound 80, PENTANEDIOIC ACID 4-[4- (4-METHOXYCARBONYL- BUTYRYLAMINO)-2-OXO- 2#H!-PYRIMIDIN-1-YL]- [1,3]DIOXOLAN-2- YLMETHYL ESTER METHYL ESTER] the IC50 [1, 6] was greater than 100000 nM, the “Factor* (Resistance Factor = Ratio of dCK- on Wild-type CCRF-CEM)” value [1] was 217 and the IC50 [2, 7] was 460 nM. The IC50 [3, 8] was 670 nM, the IC50 [4, 9] was 1800 nM and the IC50 [5, 10] was 3500 nM.

With COC(=O)CCCC(=O)Nc1ccn([C@@H]2CO[C@H](CO)O2)c(=O)n1 [Compound 81, 4-[1-(2-HYDROXYMETHYL- [1,3]DIOXOLAN-4-YL)-2- OXO-1,2-DIHYDRO- PYRIMIDIN-4- YLCARBAMOYL]-BUTYRIC ACID METHYL ESTER] the IC50 [1, 6] was greater than 100000 nM, the “Factor* (Resistance Factor = Ratio of dCK- on Wild-type CCRF-CEM)” value [1] was 83 and the IC50 [2, 7] was 1200 nM. The IC50 [3, 8] was 2200 nM, the IC50 [4, 9] was 3100 nM and the IC50 [5, 10] was 7900 nM.

COC(=O)CCCC(=O)OC[C@H]1OC[C@@H](n2ccc(N)nc2=O)O1 [Compound 82, PENTANEDIOIC ACID 4-(4- AMINO-2-OXO-2#H!- PYRIMIDIN-1-YL)- [1,3]DIOXOLAN-2- YLMETHYL ESTER METHYL ESTER] was tested, and the IC50 [1, 6] was greater than 100000 nM, the “Factor* (Resistance Factor = Ratio of dCK- on Wild-type CCRF-CEM)” value [1] was 1,887 and the IC50 [2, 7] was 53 nM. It also gave an IC50 [3, 8] of 120 nM, an IC50 [4, 9] of 170 nM and an IC50 [5, 10] of 300 nM.

With Nc1ccn([C@@H]2CO[C@H](COC(=O)CCCCCNCc3ccccc3)O2)c(=O)n1 [Compound 84, 6-Benzylamino-hexanoic acid 4-(4-amino-2-oxo-2H-pyrimidin-1-yl)-[1,3]dioxolan-2-ylmethyl ester] the “Factor* (Resistance Factor = Ratio of dCK- on Wild-type CCRF-CEM)” value [1] was 5,000, the IC50 ([2]; read-out: IC50 CCRF-CEM 24 h, 24 h drug exposure, wash, another 48 hr, 3H-TdR incorporation at 72 hr) was 12 nM and the IC50 ([3]; read-out: IC50 MCF-7 24 h, 24 h drug exposure, wash, another 48 hr, 3H-TdR incorporation at 72 hr) was 9.4 nM. For the same compound, the IC50 ([4]; read-out: IC50 H-460 24 h, 24 h drug exposure, wash, another 48 hr, 3H-TdR incorporation at 72 hr) was 14 nM and the IC50 ([5]; read-out: IC50 SF-268 24 h, 24 h drug exposure, wash, another 48 hr, 3H-TdR incorporation at 72 hr) was 360 nM.

In the case of Nc1ccn([C@@H]2CO[C@H](CO[C@@H]3O[C@H](CO)[C@@H](O)[C@H]3O)O2)c(=O)n1.O=C(O)C(F)(F)F [Compound 85, 4-AMINO-1-[2-(3,4- DIHYDROXY-5- HYDROXYMETHYL- TETRAHYDROFURAN-2- YLOXYMETHYL)- [1,3]DIOXOLAN-4-YL]- 1HPYIMIDIN-2-ONE, TRIFLUOROACETIC ACID SALT], the IC50 [1, 6] is reported as greater than 100000 nM, the “Factor* (Resistance Factor = Ratio of dCK- on Wild-type CCRF-CEM)” value [1] is reported as 38 and the IC50 [2, 7] is reported as 2600 nM. It also gave an IC50 [3, 8] of 6800 nM, an IC50 [4, 9] of 690 nM and an IC50 [5, 10] of 16000 nM.

With CCCCC(C)C(=O)OC[C@H]1OC[C@@H](n2ccc(N)nc2=O)O1.Cl (stereo partly drawn) [Compound 86, (2S,4S)-2-(2″-METHYL- HEXANOICOXYMETHYL)-4- CYTOSIN-1′-YL-1,3- DIOXOLANE HYDROCHLORIDE] the IC50 [1, 6] was 4000 nM, the “Factor* (Resistance Factor = Ratio of dCK- on Wild-type CCRF-CEM)” value [1] was 3,636 and the IC50 [2, 7] was 1.1 nM. The IC50 [3, 8] was 1.9 nM, the IC50 [4, 9] was 2 nM and the IC50 [5, 10] was 13 nM.

With Cl.Nc1ccn([C@@H]2CO[C@H](COC(=O)Oc3ccc([N+](=O)[O-])cc3)O2)c(=O)n1 [Compound 88, 1-[2-(4-NITRO- PHENOXYCARBONYLOXYMETHY L)-[1,3]DIOXOLAN-4-YL]- 2-OXO-1,2-DIHYDRO- PYRIMIDIN-4-YL- AMMONIUM; CHLORIDE] the IC50 [1, 6] was 82000 nM, the “Factor* (Resistance Factor = Ratio of dCK- on Wild-type CCRF-CEM)” value [1] was 931 and the IC50 [2, 7] was 88 nM. It also gave an IC50 [3, 8] of 190 nM, an IC50 [4, 9] of 140 nM and an IC50 [5, 10] of 610 nM.
